Test results reported in patent publication US20170210778A1, “NOVEL COMPOUNDS” (The Provost, Fellows, Foundation Scholars, and the other …, priority 2014, published 2017).

Tests used:
human NOD1 = molecular target: T1, human NOD1 (Homo sapiens, UniProt Q9Y239); experiment: NOD1 functional agonist assay, 293hNOD1-SEAP reporter cells; format: cell-based; details: 293hNOD1 cells, OD above 3*O.D of negative control
T1 construct: expressed in transfected cells; host or cells: HEK293
T1 sequence (Q9Y239 1-953): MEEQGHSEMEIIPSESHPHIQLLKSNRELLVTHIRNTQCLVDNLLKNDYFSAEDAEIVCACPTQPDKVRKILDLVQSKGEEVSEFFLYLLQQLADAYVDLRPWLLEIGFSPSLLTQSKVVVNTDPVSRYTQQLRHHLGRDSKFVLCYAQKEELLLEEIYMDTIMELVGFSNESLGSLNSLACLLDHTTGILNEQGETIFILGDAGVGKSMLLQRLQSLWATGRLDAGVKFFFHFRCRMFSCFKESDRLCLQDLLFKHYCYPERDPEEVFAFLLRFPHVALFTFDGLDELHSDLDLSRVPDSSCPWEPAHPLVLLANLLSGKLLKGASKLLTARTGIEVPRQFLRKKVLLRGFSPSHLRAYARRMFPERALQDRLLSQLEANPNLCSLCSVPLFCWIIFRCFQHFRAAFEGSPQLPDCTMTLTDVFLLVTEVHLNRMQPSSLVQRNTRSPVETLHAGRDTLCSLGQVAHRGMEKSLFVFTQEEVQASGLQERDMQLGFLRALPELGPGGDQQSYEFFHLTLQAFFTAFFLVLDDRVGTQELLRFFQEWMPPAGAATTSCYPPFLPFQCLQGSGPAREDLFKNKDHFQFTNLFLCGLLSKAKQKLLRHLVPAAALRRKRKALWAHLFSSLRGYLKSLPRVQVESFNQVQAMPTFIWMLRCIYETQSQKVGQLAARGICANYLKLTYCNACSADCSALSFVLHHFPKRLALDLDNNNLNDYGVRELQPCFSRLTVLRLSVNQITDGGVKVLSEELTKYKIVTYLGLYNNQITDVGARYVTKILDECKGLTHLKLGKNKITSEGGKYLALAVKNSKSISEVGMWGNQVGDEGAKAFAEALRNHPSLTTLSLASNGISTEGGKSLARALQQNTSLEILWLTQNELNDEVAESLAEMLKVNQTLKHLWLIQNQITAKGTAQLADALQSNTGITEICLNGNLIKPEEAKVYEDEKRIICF
Procedure, shortened: (§1)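 Stably transfected HEK293 cells overexpressing human or murine NOD1 with an NF-κB/AP-1-inducible SEAP reporter; secreted SEAP detected colorimetrically, absorbance read at 620/655 nm. Value is the lowest concentration giving mean OD above 3× the endotoxin-free water negative control; parental 293 SEAP cells lacking NOD1 served as counter-control.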

EAE in C57BL/6 mice = experiment: Experimental Autoimmune Encephalomyelitis (EAE) model; format: in vivo; details: treated mice; FIG. 1C
Text: EAE is induced in C57BL/6 mice by immunization with an emulsion of MOG35-55 or MOG1-125 in complete Freund's adjuvant (CFA), followed by administration of pertussis toxin (PT) in PBS, first on the day of immunization and then again the following day.

PEC = experiment: IL-10 production by PEC in vitro; format: cell-based; details: 24 h stimulation, FIG. 1A
[1] = system: LPM in the peritoneal cavity; experiment: Numbers of LPM in the peritoneal cavity after i.p. injection; format: in vivo; details: injected i.p. into mice; FIG. 1B
murine NOD1 = molecular target: T2, murine NOD1 (Mus musculus, UniProt Q8BHB0); experiment: NOD1 functional agonist assay, 293mNOD1-SEAP reporter cells; format: cell-based; details: 293mNOD1 cells, OD above 3*O.D of negative control
T2 construct: expressed in transfected cells; host or cells: HEK293
T2 sequence (Q8BHB0 1-953): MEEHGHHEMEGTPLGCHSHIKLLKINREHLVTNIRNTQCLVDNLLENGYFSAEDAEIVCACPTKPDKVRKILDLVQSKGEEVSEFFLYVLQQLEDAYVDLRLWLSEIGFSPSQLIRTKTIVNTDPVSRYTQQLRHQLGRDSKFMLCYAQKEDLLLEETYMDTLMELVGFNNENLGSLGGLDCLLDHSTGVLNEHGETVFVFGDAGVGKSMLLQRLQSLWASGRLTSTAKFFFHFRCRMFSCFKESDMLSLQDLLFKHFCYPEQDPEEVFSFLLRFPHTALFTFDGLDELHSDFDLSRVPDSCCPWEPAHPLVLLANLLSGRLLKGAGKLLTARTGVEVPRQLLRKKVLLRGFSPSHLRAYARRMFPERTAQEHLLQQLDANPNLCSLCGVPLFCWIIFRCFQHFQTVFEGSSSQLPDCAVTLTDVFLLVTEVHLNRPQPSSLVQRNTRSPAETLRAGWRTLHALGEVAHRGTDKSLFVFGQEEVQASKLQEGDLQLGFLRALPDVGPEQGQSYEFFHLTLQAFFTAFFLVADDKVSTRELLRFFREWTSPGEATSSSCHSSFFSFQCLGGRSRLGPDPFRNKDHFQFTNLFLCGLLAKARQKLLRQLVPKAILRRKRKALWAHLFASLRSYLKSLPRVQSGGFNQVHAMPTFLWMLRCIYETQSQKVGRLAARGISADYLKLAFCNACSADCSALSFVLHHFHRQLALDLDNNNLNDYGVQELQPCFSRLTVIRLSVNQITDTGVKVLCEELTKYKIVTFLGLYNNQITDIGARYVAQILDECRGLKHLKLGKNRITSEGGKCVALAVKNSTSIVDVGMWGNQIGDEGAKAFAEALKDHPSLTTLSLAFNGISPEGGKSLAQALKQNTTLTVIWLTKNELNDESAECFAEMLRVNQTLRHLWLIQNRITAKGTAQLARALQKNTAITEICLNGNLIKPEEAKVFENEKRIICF
Procedure, shortened: as §1

[2] = system: DSS-induced inflammation in the colon; experiment: DSS-induced inflammation in the colon model; format: in vivo, mice; details: 2% DSS in drinking water 7 days; 25 μg i.p. on days 0, 1, 2, 4 and 6; FIG. 4
Description: Mice were given water or 2% DSS in their drinking water for 7 days and were treated i.p. with either PBS, vehicle or 25 μg compound of Example 29 (Ex.29) on days 0, 1, 2, 4 and 6 of the experiment. Mice were sacrificed on day 7 and colon sections were prepared and stained with H&E.
Arrows indicate areas of severe inflammatory pathology.

DSS-induced colitis = experiment: Dextran Sulfate Sodium (DSS)-induced colitis mouse model; format: in vivo, mice; details: 2% DSS in drinking water 7 days; 25 μg i.p. on days 0, 1, 2, 4 and 6; FIG. 3
Description: As provides in FIG. 3, mice were given water or 2% DSS in their drinking water for 7 days and were treated i.p. with either PBS, vehicle or 25 μg compound of Example 29 (Ex.29) on days 0, 1, 2, 4 and 6 of the experiment. (3A) Body weights were recorded daily. (3B) Mice were sacrificed on day 7 and colon lengths were measured (mean±SE; n=6). (3C) Total mRNA were extracted from the colons on day 7 and the relative expression (RE) of the M2 macrophage markers Relma, and the M1 macrophage markers Ptgs2 (Cox2) and Nos2 were quantified by qPCR (mean±SE; n=6). *, P<0.05; and **, P<0.01 versus DSS+vehicle treated mice.

SMILES: CCCCCCCCCCCCCC(=O)N[C@@H](C)C(=O)N[C@H](CCC(=O)N[C@H](CSC[C@H](N)C(=O)O)C(=O)NCC(=O)O)C(=O)O [Example 29, N^5-((S)-3-(((R)-2-amino-2-carboxyethyl)thio)-1-((carboxymethyl)amino)-1-oxopropan-2-yl)-N^2-(tetradecanoyl-L-alanyl)-D-glutamine]
- hNod1: concentration where a significant mean optical density (OD) can be observed (human NOD1): 0.0001 µg/mL
- EAE-associated weight loss (EAE in C57BL/6 mice): prevented associated weight loss
- clinical course of EAE (EAE in C57BL/6 mice): significantly attenuated
- production of IL-10 by PEC (PEC): induced the production of significant concentrations of IL-10
- numbers of LPM in the peritoneal cavity [1]: significantly increased
- mNod1: concentration where a significant mean optical density (OD) can be observed (murine NOD1): 0.001 µg/mL
- protection against DSS-induced inflammation in the colon [2]: protects mice against DSS-induced inflammation in the colon
- protection against DSS-induced colitis (DSS-induced colitis): protects mice against DSS-induced colitis
